Data set [1] is described as follows: in vivo. Conditions: for Kp: rat, in vivo, iv. As to the method: Pharmacology. Two-week-old rats were treated with TPT (Hycamtin; GlaxoSmithKline, Research Triangle Park, N.C.) at a maximum tolerated dose (MTD) of 2 mg/kg body weight, CBP (Paraplatin; Bristol-Myers Squibb, New York, N.Y.) at an MTD of 70 mg/kg, and VCR (Mayne Pharma (USA Inc., Paramus, N.J.) at an MTD of 0.5 mg/kg; all agents were administered via tail vein injection. TPT was measured by HPLC UV absorption as described (Thompson, J. et. al., id). Atomic absorption spectrometry of ultrafiltered and nonfiltered samples was used to measure platinum levels (Simpson, A. E. et al., “Transscleral diffusion of carboplatin: an in vitro and in vivo study”, Arch Ophthalmol 120: 1069-74 (2002)). Liquid scintillation was used to measure levels of [H^3]-VCR (70-90 Ci/mmol; PerkinElmer, Wellesley, Mass.). Mice received TPT, CBP, and VCR at a dose and schedule similar to that used to treat children with retinoblastoma (Schouten-Van Meeteren, A. Y. et al., “Overview: chemotherapy for retinoblastoma: an expanding area of clinical research”, Med Pediatr Oncol 38: 428-38 (2002)) or other brain tumors.
To measure retinal and vitreal penetration of TPT, CBP, and VCR, we injected each drug intravenously into 2-wk-old rats; this age corresponded to the stage of treatment in our xenograft model. Drug levels were measured in the vitreous, retina, and plasma at 3 min, 30 min, 1.5 h, 4 h, and 6 h after injection.

For data set [2], the system named is Y79 and Weril retinoblastoma cells. The experiment in a line: Combination, time course, FACS and DNA-content studies in cultured retinoblastoma cells. It counts as cell-based, human. The source says: (§1) Cell Culture. Y79 and Weri1 cells were obtained from the American Type Culture Collection (Manassas, Va.) and maintained in culture in RPMI medium with 10% FCS (McFall, R. C. et al., “Characterization of a new continuous cell line derived from a human retinoblastoma”, Cancer Res 37: 1003-10 (1977)). Stable lines expressing GFP were generated by transfecting pTET-1 (M.A.D. unpublished) into Y79 and Weril cells by using TransFast (Promega, Madison, Wis.); clones were isolated in the presence of hygromycin. To measure live cells, 0.5 ug/ml calcein was used; to measure dead cells, 4 uM ethidium bromide was used.
Immunolabeling and TUNEL and BrdU Assays. Y79 and Weri1 retinoblastoma cells were immunolabeled as described previously for dissociated mouse retinae (Dyer, M. A. & Cepko, C. L., “p27Kip1 and p57Kip2 regulate proliferation in distinct retinal progenitor cell population”, J. of Neurosci 21: 4259-71 (2001); Zhu, C. C. et al., “Six2-mediated auto repression and eye development requires its interaction with members of the Groucho-related family of co-repressors”, Development 129: 2835-49 (2002); Dyer, M. A. & Cepko, C. L., “p57(Kip2) regulates progenitor cell proliferationand amacrine intemeuron development in the mouse retina”, Development 127: 3593-605 (2000)). For in vivo studies, BrdU (100 mg/kg body weight) was administered via tail vein injection. BrdU and TUNEL assays were carried out as described previously (Dyer, M. A. et. al., id, Zhu, C. C. et. al., id; Dyer, M. A. et. al., id). Detailed protocols are available at http://www.stjude.org/dyer.
Fluorescent-Activated Cell Sorting. DNA content was analyzed by dissociating tumors with trypsin (Dyer, M. A. et. al., id; Zhu, C. C. et. al., id; Dyer, M. A. et. al., id) and sorting cells by fluorescent-activated cell sorting (FACS). Cells were washed with PBS, and resuspended in a solution containing 0.05 mg/ml propidium iodide, 0.1% sodium citrate and, 0.1% Triton-X100. Samples were then treated with RNase, filtered through a 40-um nylon mesh, and analyzed on a FACScan (Beckton-Dickson, Franklin Lakes, N.J.).
(§2) Viable Cell Calculation Following Drug Treatment. […] The proportion of cells that had initiated apoptosis (T) was determined by a TUNEL assay.
(§3) Response of Cultured Retinoblastoma Cells to Chemotherapeutic Drugs. […] For all of the cell culture studies, retinoblastoma cells were exposed to drugs at a cell density corresponding to their optimal proliferation and cell survival. The cell number, proportion of metabolically active cells, and proportion of apoptotic cells were combined to generate the proportion of viable cells (see Materials and Methods for calculations). The proportion of dividing cells was estimated by labeling the cultures with BrdU for 1 hour. Initially, cells were exposed to TPT, CBP, or VCR for 8 hours at concentrations ranging from 1 nM to 200 uM, and the cultures were assayed 3 days later.
Following treatment, RNA was isolated and microarray hybridizations were carried out using the human H1 cDNA microarray (see Materials and Methods).
In these preliminary studies, we included an 8-h drug exposure, because that is the maximum period of drug exposure for children receiving chemotherapy. However, the time that tumor cells are exposed in situ is probably considerably shorter, so we performed a time course experiment to determine the minimum duration of exposure required for the full effect on retinoblastoma cell survival and proliferation.

Data set [3] has as its system Y79 cells. Briefly: Response of cultured retinoblastoma cells to drugs, proportion of viable cells (Y79). It counts as cell-based, human. As to conditions: 8 hours exposure, assayed 3 days later.
Excerpt: as §1, §2, §3

Data set [4] has as its system primary human retinoblastoma tumors. The experiment in a line: Enlarged nuclei in tumors removed from patients following VCR treatment. It counts as in vivo. As to conditions: human tumors treated with VCR; control primary tumors 4%±1%. The source says:
We were surprised that VCR was not effective at halting retinoblastoma growth in the orthotopic xenograft model because VCR is often combined with other chemotherapeutic agents in the treatment of retinoblastoma in children. It was possible that there was a minor effect of VCR treatment that was masked in our system by the active proliferation and expansion of the xenograft. One of the hallmarks of VCR exposure is a nucleus with twice the genomic DNA content, because VCR blocks cytokinesis without halting cell cycle progression. To test if there was any VCR-mediated block of mitosis, we scored the proportion of large cells with twice the genomic DNA content in cultured cells, xenografts, and tumors removed from patients following VCR treatment. […] The proportion of enlarged nuclei in xenografts and primary human tumors following VCR treatment was similar to control xenografts (3%±2%) and primary tumors (4%±1%), respectively.

Data set [5] relates to Weril cells. The experiment in a line: Response of cultured retinoblastoma cells to drugs, proportion of viable cells (Weri1). It counts as cell-based, human. Conditions: 8 hours exposure, assayed 3 days later.
Excerpt: as §1, §2, §3

For data set [6], the system named is Y79 retinoblastoma xenograft. Briefly: Orthotopic retinoblastoma xenograft in eyes of newborn rats. Type of data set: in vivo, rat.
Excerpt: For some experiments, the retinoblastoma cells were labeled with a GFP transgene to unambiguously establish tumor boundaries.
To establish a baseline prior to chemotherapy treatment in our retinoblastoma xenograft model, we analyzed cell number, survival, proliferation, apoptosis, and gene expression 2 weeks after engraftment. One hour before analysis, the rats received an injection of BrdU to label the cells in the S-phase of the cell cycle, a measure of the fraction of dividing cells. The engrafted cells were microdissected from the normal tissue and dissociated; the total cell number was then scored. Calcein and ethidium bromide were used to measure metabolically active cells and dead cells, respectively. […] The fraction of dividing cells was estimated by staining with an anti-BrdU antibody and scoring the fraction of immunopositive cells. […] To estimate the proportion of cells that had initiated apoptosis, we performed a TUNEL assay.
After one course of treatment, the transplanted retinoblastoma cells were analyzed for viability and proliferation as described above.
Data set [7] relates to Y79 and Weril cells. Briefly: Microarray gene expression response of retinoblastoma cells to drugs. Type of data set: cell-based, human. Conditions: microarray analysis after treatment. Here is the method: Microarray Hybridization. The H1 human cDNA microarray was printed at the Hartwell Center for Bioinformatics & Biotechnology at St. Jude Children's Research Hospital. The gene list is available at http://www.ncbi.nlm.nih.gov/geo/ (GEO Accession: GLP345). RNA was isolated from approximately 20×10^6 cells in triplicate for each treatment using Trizol (Invitrogen, Carlsbad, Calif.), and 10 ug total RNA underwent one round of linear amplification using the RiboAmp System (Arcturus Applied Genomics, Carlsbad, Calif.) to yield 100 ug of RNA. The RNA was indirectly labeled using aa-dUTP and conjugated with Cy3 and Cy5. Data were then filtered (see http://www.ncbi.nlm.nih.gov/geo/; GLP345 for details), and cluster analysis was performed.
Following treatment, RNA was isolated and microarray hybridizations were carried out using the human H1 cDNA microarray (see Materials and Methods). […] Using the LD50 of TPT, we tested the combination of TPT and CBP and that of TPT and VCR. […] This effect was additive.
Microarray analysis provided even more information about the response of retinoblastoma cells to chemotherapeutic drugs. […] VCR treatment also altered the expression of a different cohort of genes in comparison to TPT treatment. […]

For data set [8], the system named is retinoblastoma. Conditions: low-dose, frequent versus infrequent, high-dose administration; cited from earlier work.
The subject of data set [9] is retinoblastoma. Conditions: subconjunctival administration; cited from earlier work.
Setting [10] is: 2-wk-old rats, intravenous, 3 min to 6 h.

This is an account of results in US20050086708A1, “Animal models of retinal tumorigenesis” (priority 2003, published 2005).

For `CC[C@]1(O)C[C@H]2CN(CCc3c([nH]c4ccccc34)[C@@](C(=O)OC)(c3cc4c(cc3OC)N(C=O)[C@H]3[C@@](O)(C(=O)OC)[C@H](OC(C)=O)[C@]5(CC)C=CCN6CC[C@]43[C@@H]65)C2)C1` [VCR, vincristine], the Kp turned out to be 1 in data set [1] (AUC retina/plasma ratio) and 1.1 in data set [1] (AUC vitreous/plasma ratio). For the same compound, in data set [2], the “exposure time required to kill retinoblastoma cells in culture” value was 4 h. Moreover, in [2] (cultured cells, 5 nM for 8 h), the “cells with twice their normal DNA content” value is “Approximately 98%”. Besides, the “exposure time of maximum decrease in viability” value in data set [2] (time course experiment) is 4 h. The figures for the LD50 in [3] and in data set [5] (Weril cells) were 5 nM and 3 nM, respectively. Besides, the “proportion of enlarged nuclei (cell cycle progression without cytokinesis)” value in data set [4] is given as 5%±1.5%; in data set [6] (xenografts treated with VCR, control xenografts 3%±2%) it was 2%±1%. The “effect on retinoblastoma cell survival” value in data set [6] (short-term assay, one course of treatment) is given as “little effect”.
Consider `CC[C@@]1(O)C(=O)OCc2c1cc1n(c2=O)Cc2cc3c(CN(C)C)c(O)ccc3nc2-1` [TPT, topotecan], for which the Kp in data set [1] (AUC retina/plasma ratio) stood at 0.7; in data set [1] (AUC vitreous/plasma ratio) it was 0.38. Further, the “cell cycle arrest phase” value in data set [2] is on record as “G2 arrest”. Besides, the figures for the “proportion of cells arrested in G2 phase (FACS)” value in [2] (exposed for 10 min) and in data set [2] (exposed for 8 h) were 36% and 39%, respectively. Further, the “exposure sufficient to achieve the maximum reduction in cell survival and proliferation” value in [2] (time course experiment) is reported as 15 min. Further, the figures for the LD50 in [3] and in data set [5] (Weril cells) were 30 nM and 19 nM, respectively. The p53 pathway activation result in data set [7] was “activated”. Further, in [8], the “effect on tumor burden” value is listed as “more effectively reduced the tumor burden”.
As to `N.N.O=C([O-])C1(C(=O)[O-])CCC1.[Pt+2]` [CBP, carboplatin], in data set [1] (setting [10]), the AUC retina/plasma ratio came to 0.03. The AUC vitreous/plasma ratio in data set [1] (setting [10]) was found to be 0.59. Further, in data set [2], the “cell cycle arrest phase” value is recorded as “arrested in either the G1 or G2 phase”. For the same compound, in data set [2] (time course experiment), the “exposure sufficient to achieve the maximum reduction in cell survival and proliferation” value stood at 15 min. In addition, the LD50 in data set [3] was 4000 nM; in data set [5] (Weri1 cells), 5000 nM. Further, in data set [9], the “effect on tumor size” value is “effective at reducing tumor size”. Further, the p53 pathway activation result in data set [7] is listed as “not activated”. Also, in data set [6] (2-wk-old rats, after one course of treatment, untreated 2.4±0.6×10^6), the cell number/eye was 0.79±0.29×10^6 cell number/eye.
